Source: patent US20180362543A1, “HIV REPLICATION INHIBITOR” (Shionogi & Co., Ltd., priority 2013, published 2018)
One block for each compound: values may come before it.

Tested on: HIV (HTLV-III B strain)
Assay: HIV replication inhibition assay (MTT, MT-4 cells)
Assay type: cell-based
Description: HIV (HTLV-III B strain) persistent infected human T cell strain Molt-4 clone 8 was cultured in 10% Fetal Bovine Serum-containing RPMI-1640 medium and the supernatant was filtrated, then the virus titer was measured and the solution was stored at −80° C. Each anti-human immunodeficiency virus active substance was diluted with the above cultured medium to the designated concentration, which was dispensed into 96 well micro plate by 50 μL. Next, a MT-4 cell suspended liquid was dispensed by 100 μL (2.5×10^4 cells), then the above HIV-containing supernatant diluted with the above cultured medium was added thereto by 50 μL (60 pfu (plaque forming unit)).
The obtained mixture was cultured at 37° C. in CO2 incubator for four days, then 3-(4,5-dimehylthiazole-2-yl)-2,5-diphenyltetrazolynium bromide (MTT) 5 mg/mL in PBS was added to each well by 30 μL, followed by 1 hr-cultivation. In this step, as formazan was precipitated by reduction of MTT in living cells, the cell supernatant was removed from all well by 150 μL, then a 150 μL of solution (10% Triton X-100 and […]) was added thereto, followed by shaking with a plate mixer, to elute formazan. The formazan was measured with a microreader at OD: 560 nm and 690 nm (wavelength) and the result was compared with the reference. EC50 means the compound concentration at which cell cytotoxicity by virus is inhibited 50%.

[1] = 4 days culture, concentration at which cell cytotoxicity by virus is inhibited 50%
[2] = Human immunodeficiency virus 1, MT4, 96 h, 4 days culture, concentration at which cell cytotoxicity by virus is inhibited 50%
[3] = Human immunodeficiency virus 1, MT4, 96 h, Table A-2, four days
[4] = Human immunodeficiency virus 1, MT4, 96 h, Table A-3, four days

SMILES: Cc1c(C(OC(C)(C)C)C(=O)O)c(-c2ccc3c(c2)CCCO3)c(C)c2c1[nH]c(=O)n2Cc1ccccc1 (stereo not drawn) [Compound 3]
EC50 [1]: 64 nM

SMILES: Cc1c(-c2c([C@H](OC(C)(C)C)C(=O)O)c(C)c3nc(O)c4ccccc4c3c2C)ccc2c1CCCO2 [Compound 8]
EC50 [1]: 62 nM

SMILES: Cc1c([C@H](OC(C)(C)C)C(=O)O)c(-c2ccc3c(c2)CCCO3)c(C)c2c1ncc1ccsc12 [Compound 17]
EC50 [2]: 59 nM

SMILES: Cc1ccc(-c2c(C)c3c(c(C)c2[C@H](OC(C)(C)C)C(=O)O)N(S(C)(=O)=O)Cc2ccccc2-3)cc1 [Compound 20]
EC50 [2]: 13 nM

SMILES: Cc1ccc(-c2c(C)c3c(c(C)c2[C@H](OC(C)(C)C)C(=O)O)NC(=O)CCc2ccccc2-3)cc1 [Compound 42]
EC50 [2]: 10 nM

SMILES: Cc1ccc(-c2c(C)c3c(c(C)c2[C@H](OC(C)(C)C)C(=O)O)NC(=O)c2ccc(C)nc2O3)cc1 [Compound 48]
EC50 [2]: 29 nM

SMILES: Cc1ccc(-c2c(C)c3c(c(C)c2[C@H](OC(C)(C)C)C(=O)O)NC(=O)N(C2CCCCC2)CC3)cc1 [Compound 71]
EC50 [2]: 16 nM

SMILES: Cc1c2c3c(c(C(OC(C)(C)C)C(=O)O)c1-c1ccc4c(c1)CCCO4)CCCN3S(=O)(=O)N(Cc1ccccc1)C2 (stereo not drawn) [Compound 79]
EC50 [2]: 15 nM

EC50 [3]: 21 nM
SMILES: Cc1ccc(-c2c(C)c3c(c(C)c2[C@H](OC(C)(C)C)C(=O)O)NS(=O)(=O)/C=C/CCCCO3)cc1 [Compound 88]

EC50 [3]: 4.2 nM
SMILES: Cc1ccc(-c2c(C)c3c(c(C)c2[C@H](OC(C)(C)C)C(=O)O)NS(=O)(=O)Cc2cc(F)ccc2-3)cc1 [Compound 91]

EC50 [3]: 9.8 nM
SMILES: Cc1ccc(-c2c(C)c3c(c(C)c2[C@H](OC(C)(C)C)C(=O)O)NS(=O)(=O)Cc2ccc(F)cc2-3)cc1 [Compound 95]

EC50 [3]: 32 nM
SMILES: Cc1ccc(-c2c([C@H](OC(C)(C)C)C(=O)O)c(C)c3nc(O)c4cc(C)ccc4c3c2C)cc1 [Compound 96]

EC50 [3]: 22 nM
SMILES: Cc1ccc(-c2c([C@H](OC(C)(C)C)C(=O)O)c(C)c3nc(O)c4cc(C(F)(F)F)ccc4c3c2C)cc1 [Compound 98]

EC50 [3]: 97 nM
SMILES: Cc1ccc(-c2c([C@H](OC(C)(C)C)C(=O)O)c(C)c3ncc4cc5ccccc5nc4c3c2C)cc1 [Compound 99]

EC50 [3]: 10 nM
SMILES: Cc1ccc(-c2c([C@H](OC(C)(C)C)C(=O)O)c(C)c3nc(O)c4cc(F)cnc4c3c2C)cc1 [Compound 100]

EC50 [3]: 17 nM
SMILES: Cc1ccc(-c2c([C@H](OC(C)(C)C)C(=O)O)c(C)c3nc(O)c4cc5ccsc5nc4c3c2C)cc1 [Compound 101]

EC50 (Table A-2, four days): 2.1 nM
SMILES: Cc1ccc(-c2c(C)c3c(c(C)c2[C@H](OC(C)(C)C)C(=O)O)N(S(C)(=O)=O)Cc2cc4c(cc2-3)OCCO4)cc1 [Compound 104]

EC50 (Table A-2, four days): 38 nM
SMILES: Cc1ccc(-c2c(C)c3c(c(C)c2[C@H](OC(C)(C)C)C(=O)O)N(S(C)(=O)=O)Cc2cc4c(cc2-3)OCCO4)cc1 [Compound 105]

EC50 [3]: 12 nM
SMILES: Cc1ccc(-c2c(C)c3c(c(C)c2[C@H](OC(C)(C)C)C(=O)O)N(S(C)(=O)=O)Cc2cc(F)c(F)cc2-3)cc1 [Compound 108]

EC50 [3]: 9.1 nM
SMILES: Cc1ccc(-c2c(C)c3c(c(C)c2[C@H](OC(C)(C)C)C(=O)O)N(S(C)(=O)=O)Cc2cccc(F)c2-3)cc1 [Compound 109]

EC50 [3]: 17 nM
SMILES: Cc1ccc(-c2c(C)c3c(c(C)c2[C@H](OC(C)(C)C)C(=O)O)N(S(C)(=O)=O)Cc2ccc(C)cc2-3)cc1 [Compound 110]

EC50 [3]: 7.8 nM
SMILES: Cc1ccc(-c2c(C)c3c(c(C)c2[C@H](OC(C)(C)C)C(=O)O)NC(=O)C2(CCC2)N3)cc1 [Compound 111]

EC50 [3]: 8.5 nM
SMILES: Cc1ccc(-c2c(C)c3c(c(C)c2[C@H](OC(C)(C)C)C(=O)O)NC(=O)C2(CCC(C)(C)CC2)N3)cc1 [Compound 112]

EC50 [3]: 8.6 nM
SMILES: Cc1ccc(-c2c(C)c3c(c(C)c2[C@H](OC(C)(C)C)C(=O)O)NC(=O)C2(C[C@@H]4CC[C@H]2C4)N3)cc1 (stereo partly drawn) [Compound 113]

EC50 [3]: 6 nM
SMILES: Cc1ccc(-c2c(C)c3c(c(C)c2[C@H](OC(C)(C)C)C(=O)O)N(S(C)(=O)=O)Cc2cc(C)ccc2-3)cc1 [Compound 115]

EC50 [3]: 2.9 nM
SMILES: Cc1ccc(-c2c(C)c3c(c(C)c2[C@H](OC(C)(C)C)C(=O)O)N(S(C)(=O)=O)Cc2c-3ccc3cccnc23)cc1 [Compound 116]

EC50 (Table A-2, four days): 19 nM
SMILES: Cc1ccc(-c2c(C)c3c(c(C)c2[C@H](OC(C)(C)C)C(=O)O)NS(=O)(=O)Cc2cc(C)ccc2-3)cc1 [Compound 117]

EC50 (Table A-2, four days): 4.4 nM
SMILES: Cc1ccc(-c2c(C)c3c(c(C)c2[C@H](OC(C)(C)C)C(=O)O)NS(=O)(=O)Cc2cc(C)ccc2-3)cc1 [Compound 118]

EC50 (Table A-2, four days): 43 nM
SMILES: Cc1ccc(-c2c(C)c3c(c(C)c2[C@H](OC(C)(C)C)C(=O)O)NS(=O)(=O)Cc2ccc(C)cc2-3)cc1 [Compound 119]

EC50 (Table A-2, four days): 5.1 nM
SMILES: Cc1ccc(-c2c(C)c3c(c(C)c2[C@H](OC(C)(C)C)C(=O)O)NS(=O)(=O)Cc2ccc(C)cc2-3)cc1 [Compound 120]

EC50 [3]: 3.8 nM
SMILES: COc1ccc2c(c1)CN(S(C)(=O)=O)c1c(C)c([C@H](OC(C)(C)C)C(=O)O)c(-c3ccc(C)cc3)c(C)c1-2 [Compound 122]

EC50 (Table A-2, four days): 89 nM
SMILES: Cc1ccc(-c2c(C)c3c(c(C)c2[C@H](OC(C)(C)C)C(=O)O)NS(=O)(=O)Cc2c(F)cccc2-3)cc1 [Compound 123]

EC50 (Table A-2, four days): 8.2 nM
SMILES: Cc1ccc(-c2c(C)c3c(c(C)c2[C@H](OC(C)(C)C)C(=O)O)NS(=O)(=O)Cc2c(F)cccc2-3)cc1 [Compound 124]

EC50 [3]: 39 nM
SMILES: Cc1ccc(-c2c(C)c3c(c(C)c2[C@H](OC(C)(C)C)C(=O)O)NS(=O)(=O)Cc2cccc(C)c2-3)cc1 [Compound 125]

EC50 [3]: 11 nM
SMILES: Cc1ccc(-c2c(C)c3c(c(C)c2[C@H](OC(C)(C)C)C(=O)O)NS(=O)(=O)N(C2CCCCC2)CC3)cc1 [Compound 127]

EC50 [3]: 10 nM
SMILES: Cc1ccc(-c2c(C)c3c(c(C)c2[C@H](OC(C)(C)C)C(=O)O)NS(=O)(=O)N(C2CCCCCC2)CC3)cc1 [Compound 128]

EC50 [3]: 7.7 nM
SMILES: Cc1ccc(-c2c(C)c3c(c(C)c2[C@H](OC(C)(C)C)C(=O)O)NS(=O)(=O)N(C2CCCC2)CC3)cc1 [Compound 129]

EC50 [3]: 12 nM
SMILES: Cc1ccc(-c2c(C)c3c(c(C)c2[C@H](OC(C)(C)C)C(=O)O)NS(=O)(=O)N(CC2CCCCC2)CC3)cc1 [Compound 130]

EC50 [3]: 87 nM
SMILES: Cc1ccc(-c2c(C)c3c(c(C)c2[C@H](OC(C)(C)C)C(=O)O)NS(=O)(=O)N(C2CCOCC2)CC3)cc1 [Compound 131]

EC50 [3]: 22 nM
SMILES: COCCN1CCc2c(C)c(-c3ccc(C)cc3)c([C@H](OC(C)(C)C)C(=O)O)c(C)c2NS1(=O)=O [Compound 132]

EC50 [3]: 4.8 nM
SMILES: Cc1ccc(-c2c(C)c3c(c(C)c2[C@H](OC(C)(C)C)C(=O)O)NS(=O)(=O)N(Cc2ccc(F)cc2)CC3)cc1 [Compound 133]

EC50 [3]: 62 nM
SMILES: Cc1ccc(-c2c(C)c3c(c(C)c2[C@H](OC(C)(C)C)C(=O)O)NS(=O)(=O)N(C(c2ccccc2)c2ccccc2)CC3)cc1 [Compound 134]

EC50 [4]: 3.1 nM
SMILES: Cc1ccc(-c2c(C)c3c(c(C)c2[C@H](OC(C)(C)C)C(=O)O)NC(=O)C2(CCCCCC2)N3)cc1 [Compound 140]

EC50 [4]: 3.5 nM
SMILES: Cc1ccc(-c2c(C)c3c(c(C)c2[C@H](OC(C)(C)C)C(=O)O)N(S(C)(=O)=O)Cc2c-3ccc(C)c2F)cc1 [Compound 141]

EC50 [4]: 4.4 nM
SMILES: Cc1ccc(-c2c(C)c3c(c(C)c2[C@H](OC(C)(C)C)C(=O)O)N(S(C)(=O)=O)Cc2c(F)ccc(F)c2-3)cc1 [Compound 142]

EC50 [4]: 39 nM
SMILES: Cc1ccc(-c2c(C)c3c(c(C)c2[C@H](OC(C)(C)C)C(=O)O)N(S(C)(=O)=O)Cc2cccnc2-3)cc1 [Compound 145]

EC50 [4]: 8.8 nM
SMILES: Cc1ccc(-c2c(C)c3c(c(C)c2[C@H](OC(C)(C)C)C(=O)O)NC(=O)N(C2CCCCCC2)CC3)cc1 [Compound 148]

EC50 [4]: 23 nM
SMILES: Cc1ccc(-c2c(C)c3c(c(C)c2[C@H](OC(C)(C)C)C(=O)O)NC(=O)N(C2CCCC2)CC3)cc1 [Compound 149]

EC50 [4]: 22 nM
SMILES: Cc1ccc(-c2c(C)c3c(c(C)c2[C@H](OC(C)(C)C)C(=O)O)NC(=O)N(CC2CCCCC2)CC3)cc1 [Compound 150]

EC50 [4]: 16 nM
SMILES: Cc1ccc(-c2c(C)c3c(c(C)c2[C@H](OC(C)(C)C)C(=O)O)NC(=O)N(C(c2ccccc2)c2ccccc2)CC3)cc1 [Compound 152]

EC50 [4]: 47 nM
SMILES: Cc1ccc(-c2c([C@H](OC(C)(C)C)C(=O)O)c(C)c3nc(O)c4c(c3c2C)CCN(S(=O)(=O)c2ccc(F)cc2)C4)cc1 [Compound 153]

EC50 [4]: 39 nM
SMILES: Cc1ccc(-c2c(C)c3c(c(C)c2[C@H](OC(C)(C)C)C(=O)O)N(S(=O)(=O)C2CC2)Cc2ccccc2-3)cc1 [Compound 155]

EC50 [4]: 23 nM
SMILES: Cc1ccc(-c2c(C)c3c(c(C)c2[C@H](OC(C)(C)C)C(=O)O)NS(=O)(=O)Cc2cccc(F)c2-3)cc1 [Compound 156]

EC50 [4]: 4.3 nM
SMILES: Cc1ccc(-c2c(C)c3c(c(C)c2[C@H](OC(C)(C)C)C(=O)O)NC(=O)C2(CCC(F)(F)CC2)N3)cc1 [Compound 157]

EC50 [4]: 5.3 nM
SMILES: Cc1ccc(-c2c(C)c3c(c(C)c2[C@H](OC(C)(C)C)C(=O)O)N(S(C)(=O)=O)Cc2cc(C(F)(F)F)ccc2-3)cc1 [Compound 159]

EC50 [4]: 21 nM
SMILES: Cc1ccc(-c2c(C)c3c(c(C)c2[C@H](OC(C)(C)C)C(=O)O)N(S(C)(=O)=O)Cc2ccc(F)cc2-3)cc1 [Compound 161]

EC50 [4]: 13 nM
SMILES: COc1cc(C)c2c(c1)CN(S(C)(=O)=O)c1c(C)c([C@H](OC(C)(C)C)C(=O)O)c(-c3ccc(C)cc3)c(C)c1-2 [Compound 162]
